The source of these data is PMC8951016, “Computational Design and Biological Evaluation of Analogs of Lupin Peptide P5 Endowed with Dual PCSK9/HMG-CoAR Inhibiting Activity” (Pharmaceutics, 2022).

Series [1] concerns LDLR on HepG2 cell surface. The following applies: cellular level; cited from earlier work.
For series [2], the system named is LDL uptake, HepG2 cells. The following applies: cited from earlier work.
For series [3], the target named is T1, HMG-CoAR (catalytic domain) (Homo sapiens, UniProt P04035).
T1 construct: finally the HMG-CoAR (cata- lytic domain) (2 µL); purchased Sigma-Aldrich
T1 sequence (P04035 426-888 limits assumed): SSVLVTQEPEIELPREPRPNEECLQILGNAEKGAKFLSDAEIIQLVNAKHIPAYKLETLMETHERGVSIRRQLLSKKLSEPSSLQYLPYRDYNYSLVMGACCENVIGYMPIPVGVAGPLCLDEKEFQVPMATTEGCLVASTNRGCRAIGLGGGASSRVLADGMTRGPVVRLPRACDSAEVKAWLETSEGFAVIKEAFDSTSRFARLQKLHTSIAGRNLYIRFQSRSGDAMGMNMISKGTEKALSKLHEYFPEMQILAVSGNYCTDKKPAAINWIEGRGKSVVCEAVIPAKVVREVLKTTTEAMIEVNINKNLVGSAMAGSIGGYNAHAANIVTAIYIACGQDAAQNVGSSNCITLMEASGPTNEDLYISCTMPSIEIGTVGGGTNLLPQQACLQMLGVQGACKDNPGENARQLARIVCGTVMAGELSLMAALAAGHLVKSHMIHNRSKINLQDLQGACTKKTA
The following applies: cited from earlier work.

The subject of another series is PCSK9. More on the design: method as in 3 sources, ref 49 = [49]; PMID 35011066; doi:10.3390/nu14010193; 49. Macchi C. Greco M.F. Ferri N. Magni P. Arnoldi A. Corsini A. Sirtori C.R. Ruscica M. Lammi C. Impact of Soy β-Conglycinin Peptides on PCSK9 Protein Expression in HepG2 Cells Nutrients 2021 14 193 ||| ref 22 = [22]; doi:10.1016/j.jff.2017.02.009; 22. Zanoni C. Aiello G. Arnoldi A. Lammi C. Investigations on the hypocholesterolaemic activity of […] and LTFPGSAED, two peptides from lupin β-conglutin: Focus on LDLR and PCSK9 pathways J. Fu ||| ref 24 = [24]; PMID 33808034; doi:10.3390/nu13030863; 24. Lammi C. Aiello G. Bollati C. Li J. Bartolomei M. Ranaldi G. Ferruzza S. Fassi E.M.A. Grazioso G. Sambuy Y. Trans-Epithelial Transport, Metabolism, and Biological Activity Assessment of the Multi-. Conditions: 250 µM, via modulation of HNF1-α; cited from earlier work.

The test system of a further series is mature PCSK9 (secreted). More on the design: method as in PMID 35011066. The following applies: 250 µM, via modulation of HNF1-α; cited from earlier work.
Series [4] concerns LDLR on HepG2 cell surface. Nature of the series: In-cell western (ICW), LDLR on HepG2 surface in the presence of PCSK9. The following applies: PCSK9 4 μg/mL, 2 h; vs untreated control cells; p < 0.001. It counts as cell-based, human. The method, then: For the experiments, a total of 3 × 10^4 HepG2 cells/well were seeded in 96-well plates and treated with 4.0 μg/mL PCSK9-WT and 4.0 μg/mL PCSK9 + peptides P5 and/or P5 analogs (50 µM) and vehicle (H2O) for 2 h at 37 °C under 5% CO2 atmosphere. Thus, cells underwent to ICW assay following conditions already optimized. See Supplementary Materials for detailed information. […]
cLex Co., Nagano, Japan). The peptides (P5, P5-Best, P-H6A, and P5-S7A) were synthe-sized by the company GeneScript (Piscataway, NJ, USA) at >95% purity. The antibody against HMG-CoAR was bought from Abcam (Cambridge, UK). […]
HMG-CoAR Aactivity Assay. […] Subsequently, the samples were mixed and the absorbance at 340 nm read by the microplate reader Synergy H1 (Winooski, VT, USA) at time 0 and 10 min. The HMG-CoAR-dependent oxidation of NADPH and the inhibition properties of peptides were measured by absorbance reduction, which is directly proportional to enzyme activ- […]
In Vitro PCSK9-LDLR Binding Assay. […] The reaction was stopped with 2.0 M sulfuric acid and the absorbance at 450nm was measured using the Synergy H1 fluorescent plate reader […]

Series [5] concerns LDL uptake, HepG2 cells. Description: Fluorescent LDL uptake in HepG2 cells in the presence of PCSK9. It counts as cell-based, human. Conditions: PCSK9 4 μg/mL, 2 h; vs untreated control cells; p < 0.05. On the procedure: HepG2 cells (3 × 10^4/well) were seeded in 96-well plates and kept in complete growth medium for 2 days before treatment. The third day, cells were washed with PBS and then starved overnight (O/N) in DMEM without FBS and antibiotics. After starvation, they were treated with 4.0 μg/mL PCSK9 and 4.0 μg/mL PCSK9 + P5 and P5 analogs peptides (50 µM), and vehicle (H2O) for 2 h with at 37 °C under 5% CO2 atmosphere. Fluorescent LDL-uptake was finally assessed following optimized protocol. See Supplementary Materials for further details.
PBS for 1.5 h at RT. LDLR primary antibody solution (1:3000 in 5% BSA in PBS, 25 µL/well) was incubated O/N at +4 °C. […] The reaction was stopped with 2 M H2SO4 and then the absorbance at 450 nm was measured using the microplate reader Synergy H1 (Winoo-ski, VT, USA). After the read, cells were stained by adding 1 X Janus Green stain, incubat-ing for 5 min at RT. […]
Afterward 100 µL 0.5 M HCl for well were added and incubated for 10 min. After 10 sec-onds shaking, the OD at 595 nm was measured using the microplate reader Synergy H1 […]
Fluorescent LDL Uptake. […] The degree of LDL uptake was measured using the Synergy H1 fluo-rescent plate reader (Winooski, VT, USA) (excitation and emission wavelengths 540 and 570 nm, respectively). Fluorescent LDL-uptake was finally assessed following optimized […]

A further series relates to SREBP-2. Conditions: cited from earlier work. On the procedure:
Further experiments were performed to verify the ability of these P5 analogs to modulate the LDLR pathway in HepG2 cells.

The test system of another series is LDLR. More on the design: method as in 3 sources, ref 48 = [48]; doi:10.1111/jfbc.12757; 48. Lammi C. Zanoni C. Arnoldi A. Aiello G. […] (P3), a peptide from lupin protein, absorbed by Caco-2 cells, modulates cholesterol metabolism in HepG2 cells via SREBP-1 activation J. Food B ||| ref 22 = [22]; doi:10.1016/j.jff.2017.02.009; 22. Zanoni C. Aiello G. Arnoldi A. Lammi C. Investigations on the hypocholesterolaemic activity of […] and LTFPGSAED, two peptides from lupin β-conglutin: Focus on LDLR and PCSK9 pathways J. Fu ||| ref 24 = [24]; PMID 33808034; doi:10.3390/nu13030863; 24. Lammi C. Aiello G. Bollati C. Li J. Bartolomei M. Ranaldi G. Ferruzza S. Fassi E.M.A. Grazioso G. Sambuy Y. Trans-Epithelial Transport, Metabolism, and Biological Activity Assessment of the Multi-. The following applies: via compensatory upregulation of SREBP-1; cited from earlier work.

Consider TVFTSWEEYLDWV [Pep2-8], for which the “restoration of LDLR protein levels vs P5 analogs” value in [1] is “less efficient than P5 analogs”. Also, in the series on LDL uptake, HepG2 cells [2], the “restoration of hepatocyte LDL absorption vs P5 analogs” value is “less efficient than P5 analogs”.
On to “YVVNPDNNEN [peptide from soybean β-Conglycinin]”, for which the “HMG-CoAR inhibition (YVVNPDNNEN, words)” value in series [3] is listed as “able to inhibit the HMG-CoAR activity”. Besides, the “PCSK9 protein level (YVVNPDNNEN, words)” value in the series on PCSK9 is on record as “reduces the PCSK9 protein level”. The “PCSK9 secretion (YVVNPDNNEN, words)” value in the series with mature PCSK9 (secreted) was “reduces the PCSK9 protein level and its secretion”.
As to “PCSK9: PCSK9 added at 4 µg/mL to HepG2 cells”, the “decrease of LDLR level by PCSK9 alone” value in series [4] was found to be 25.4 ± 1.6%. For the same substance, the “reduction in uptake of fluorescent LDL by PCSK9 alone” value in the series on LDL uptake, HepG2 cells [5] was 43.6 ± 9.6%.
“YDFYPSSTKDQQS [Peptide P3, a peptide from lupin protein]”: the “HMG-CoAR activity (P3, words)” value in series [3] is “inhibits HMG-CoAR activity”. For the same substance, in the series with SREBP-2, the “SREBP-2 activation (P3, words)” value was “without SREBP-2 activation”. Also, the “LDLR protein levels (P3, words)” value in the series on LDLR is recorded as “increase in the LDLR protein levels”.
